Key:
Assay in all cases: relative viability (nuclei count vs DMSO), 5 days (fraction); higher = more cells survive
MK-8033 + Navitoclax = compound: Cn1cc(-c2cnc3ccc4ccc(CS(=O)(=O)NCc5ccccn5)cc4c(=O)c3c2)cn1 [MK-8033] + CC1(C)CCC(c2ccc(Cl)cc2)=C(CN2CCN(c3ccc(C(=O)NS(=O)(=O)c4ccc(N[C@H](CCN5CCOCC5)CSc5ccccc5)c(S(=O)(=O)C(F)(F)F)c4)cc3)CC2)C1 [Navitoclax] (partner 0.5 µM)
How it was run: (§1)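 After 5 days of treatment, lung cancer cells in 1536-well plates were fixed and stained in a single step (final 0.05% Triton X-100, 1% formaldehyde, 1 ug/ml Hoechst) and their nuclei counted on 4× images. Treatment had been applied by pin tool the day after seeding as one drug alone or as a fixed anchor-drug dose with five library-drug doses (not always all listed) in √10 steps. Relative viability is the nuclei count of treated wells divided by that of vehicle wells, and values are medians of duplicate plates.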

MK-8033 + AZD7762 = compound: Cn1cc(-c2cnc3ccc4ccc(CS(=O)(=O)NCc5ccccn5)cc4c(=O)c3c2)cn1 [MK-8033] + NC(=O)Nc1cc(-c2cccc(F)c2)sc1C(=O)N[C@H]1CCCNC1 [AZD7762] (partner 0.2 µM)
How it was run: as §1

RU-SKI 43 + Alpelisib = compound: CC[C@@H](C)CNCC(=O)N1CCC2=C([C@@H]1COC3=CC=CC(=C3)C)C=CS2 [RU-SKI 43] + Cc1nc(NC(=O)N2CCC[C@H]2C(N)=O)sc1-c1ccnc(C(C)(C)C(F)(F)F)c1 [Alpelisib] (partner 2 µM)
How it was run: as §1

Irinotecan + Tozasertib = compound: CCc1c2c(nc3ccc(OC(=O)N4CCC(N5CCCCC5)CC4)cc13)-c1cc3c(c(=O)n1C2)COC(=O)[C@]3(O)CC [Irinotecan] + Cc1cc(Nc2cc(N3CCN(C)CC3)nc(Sc3ccc(NC(=O)C4CC4)cc3)n2)n[nH]1 [Tozasertib] (partner 0.1 µM)
How it was run: as §1

Cell Line	relative viability (MK-8033 + Navitoclax; first compound 0.02 µM)	relative viability (MK-8033 + Navitoclax; first compound 0.06325 µM)	relative viability (MK-8033 + Navitoclax; first compound 0.2 µM)	relative viability (MK-8033 + Navitoclax; first compound 0.6325 µM)	relative viability (MK-8033 + Navitoclax; first compound 2 µM)	relative viability (MK-8033 + AZD7762; first compound 0.02 µM)	relative viability (MK-8033 + AZD7762; first compound 0.06325 µM)	relative viability (MK-8033 + AZD7762; first compound 0.2 µM)	relative viability (MK-8033 + AZD7762; first compound 0.6325 µM)	relative viability (MK-8033 + AZD7762; first compound 2 µM)	relative viability (RU-SKI 43 + Alpelisib; first compound 0.1 µM)	relative viability (RU-SKI 43 + Alpelisib; first compound 0.3162 µM)	relative viability (RU-SKI 43 + Alpelisib; first compound 1 µM)	relative viability (RU-SKI 43 + Alpelisib; first compound 3.162 µM)	relative viability (RU-SKI 43 + Alpelisib; first compound 10 µM)	relative viability (Irinotecan + Tozasertib; first compound 0.6325 µM)	relative viability (Irinotecan + Tozasertib; first compound 2 µM)	relative viability (Irinotecan + Tozasertib; first compound 6.325 µM)	relative viability (Irinotecan + Tozasertib; first compound 20 µM)
NCI-H2347	0.844	0.741	0.779	0.827	0.737	0.717	0.784	0.68	0.722	0.831	1.1	1.19	1.13	1.15	0.949	0.441	0.502	0.546	0.441
H3255	0.577	0.446	0.441	0.418	0.485	0.932	0.724	0.793	0.788	0.899	0.719	0.834	0.773	0.725	0.686	0.513	0.501	0.375	0.437
NCI-H460	0.975	0.921	1.01	1.19	1.04	0.77	0.673	0.571	0.505	0.598	0.44	0.657	0.6	0.5	0.36	0.374	0.186	0.0861	0.0393
BEN	0.067	0.0568	0.0526	0.0753	0.0791	0.82	0.634	0.76	0.599	0.788	1.04	1.13	1.07	1.06	1	0.378	0.499	0.447	0.34
NCI-H1993	0.866	0.781	0.859	0.83	0.708	0.657	0.679	0.584	0.529	0.407	0.655	0.678	0.702	0.701	0.66	0.582	0.71	0.639	0.644
NCI-H838	1.13	1.14	1.01	1.22	1.08	0.904	0.92	0.945	0.901	0.862	0.975	0.969	0.966	0.93	1.02	0.283	0.491	0.23	0.242
NCI-H1755	0.829	0.988	0.983	1.01	0.966	0.487	0.35	0.384	0.401	0.452	0.97	1.21	1.04	1.05	0.916	0.469	0.463	0.316	0.405
NCI-H1666	0.959	0.852	0.951	1.1	0.924	0.839	0.771	0.814	0.873	0.996	1.09	1.09	0.966	0.789	0.582	0.552	0.543	0.569	0.26
NCI-H2085	1.03	1.03	1.1	1.13	1.14	0.975	0.878	0.923	0.988	0.836	0.93	1.02	1.09	1.01	0.845	0.843	0.726	0.505	0.51
NCI-H647	1.11	1.01	1.09	1.04	0.999	0.59	0.452	0.408	0.471	0.549	1.2	1.56	1.51	1.11	1.1	0.24	0.294	0.151	0.0868
NCI-H1793	0.454	–	0.291	0.38	0.508	0.442	–	0.331	0.413	0.328	0.676	0.784	0.764	0.894	0.686	–	0.345	0.217	0.219
LCLC-97TM1	0.402	0.506	0.396	0.398	0.401	0.248	0.338	0.268	0.227	0.222	0.215	–	0.206	0.241	0.234	0.14	0.176	0.125	0.113
HOP-62	1.03	0.89	1.03	1.12	0.955	0.67	0.722	0.464	0.471	0.578	0.978	0.934	1.26	1.09	1.01	0.234	0.328	0.249	0.215
NCI-H1734	0.811	0.818	0.763	0.878	0.837	0.544	0.361	0.522	0.572	0.54	0.595	0.698	0.755	0.672	0.671	–	0.279	0.198	0.33
NCI-H2170	0.559	0.55	0.612	0.586	0.597	0.733	0.768	0.829	0.828	0.848	0.78	0.855	0.86	0.826	0.808	0.801	0.701	0.236	0.181
NCI-H1975	1.12	0.92	1.08	1.08	1.07	0.72	0.777	0.691	0.617	0.689	0.692	0.717	0.806	0.66	0.583	0.929	0.726	0.354	0.199
NCI-H1437	1.03	1.03	1.01	1	0.953	1.07	1.18	1.06	1.1	1.11	0.945	1.26	0.964	1.07	0.921	0.339	0.387	0.312	0.218

Cell Line	relative viability (MK-8033 + Navitoclax; first compound 0.02 µM)	relative viability (MK-8033 + Navitoclax; first compound 0.06325 µM)	relative viability (MK-8033 + Navitoclax; first compound 0.2 µM)	relative viability (MK-8033 + Navitoclax; first compound 0.6325 µM)	relative viability (MK-8033 + Navitoclax; first compound 2 µM)	relative viability (MK-8033 + AZD7762; first compound 0.02 µM)	relative viability (MK-8033 + AZD7762; first compound 0.06325 µM)	relative viability (MK-8033 + AZD7762; first compound 0.2 µM)	relative viability (MK-8033 + AZD7762; first compound 0.6325 µM)	relative viability (MK-8033 + AZD7762; first compound 2 µM)	relative viability (RU-SKI 43 + Alpelisib; first compound 0.1 µM)	relative viability (RU-SKI 43 + Alpelisib; first compound 0.3162 µM)	relative viability (RU-SKI 43 + Alpelisib; first compound 1 µM)	relative viability (RU-SKI 43 + Alpelisib; first compound 3.162 µM)	relative viability (RU-SKI 43 + Alpelisib; first compound 10 µM)	relative viability (Irinotecan + Tozasertib; first compound 0.6325 µM)	relative viability (Irinotecan + Tozasertib; first compound 2 µM)	relative viability (Irinotecan + Tozasertib; first compound 6.325 µM)	relative viability (Irinotecan + Tozasertib; first compound 20 µM)
A-427	0.967	0.869	0.891	0.912	0.868	0.791	0.634	0.692	0.775	0.728	1.13	1.16	1.18	–	1.02	–	0.159	0.216	0.182
NCI-H2405	0.825	0.727	0.733	0.847	0.933	0.807	0.734	0.638	0.701	0.742	0.8	0.787	0.651	0.789	0.721	–	0.605	0.354	0.246
LC-2-ad	0.519	0.328	0.398	0.383	0.413	0.832	0.783	0.78	0.843	0.827	0.836	1.02	0.932	0.924	0.779	0.439	0.437	0.343	0.233
NCI-H1944	1.15	–	0.991	1.02	1.03	0.549	0.377	0.525	0.497	0.561	0.888	0.815	0.843	0.872	0.786	0.222	0.202	0.167	0.135
NCI-H322M	1.24	1.08	1.18	1.2	1.17	0.535	0.47	0.518	0.609	0.697	0.85	0.852	0.833	0.891	0.794	0.461	0.511	0.411	0.202
HCC-44	0.874	0.911	0.912	0.963	0.899	1.04	1.04	0.994	1.06	1.02	0.73	0.72	0.901	0.875	0.802	–	1.17	0.377	0.308
HCC-827	0.963	–	0.939	0.918	0.984	0.259	–	0.196	0.207	0.238	0.92	1.06	1.03	1.01	0.965	0.318	0.307	0.249	0.175
NCI-H23	0.938	0.777	0.682	0.779	0.837	0.302	0.231	0.215	–	0.249	0.648	0.796	0.81	0.697	0.628	0.24	0.256	0.235	0.218
EMC-BAC-2	1.16	1.06	1.12	1.14	1.15	1.12	0.979	1	1.01	1.09	0.769	0.752	0.762	0.733	0.893	0.263	0.269	0.259	0.406
EPLC-272H	1.12	–	1.07	0.853	1.08	0.207	0.144	0.201	0.167	0.19	1.12	0.968	0.987	–	0.948	0.165	0.252	0.258	0.25
EKVX	0.939	0.923	0.916	0.82	0.96	0.695	0.615	0.693	0.647	0.63	0.79	0.949	0.828	0.946	0.839	0.336	0.258	0.303	0.177
HCC-15	0.744	0.706	0.679	0.668	0.668	1.06	1.31	0.978	1.31	1.18	0.96	1.02	0.963	0.931	0.844	–	0.332	0.164	0.151
LXF-289	0.945	0.928	0.923	0.979	0.941	1.15	1.02	0.958	1.18	1.08	1.02	0.96	1.1	1.13	0.963	0.185	0.179	0.112	0.174
LK-2	0.907	0.853	0.807	0.924	0.772	0.454	0.288	0.316	0.363	0.427	1.27	1.41	1.18	–	1.24	0.183	0.192	0.287	0.352
NCI-H2126	0.836	0.838	0.861	0.832	0.827	1.06	0.993	1.02	0.942	1.02	0.769	0.82	0.825	0.831	0.727	–	0.813	0.46	0.206
NCI-H596	0.923	0.884	0.856	0.857	0.951	1.04	0.995	1.01	1.04	0.985	0.395	0.481	0.508	0.6	0.482	0.798	0.878	0.632	0.624
NCI-H3122	1.03	1	1.03	1.01	1.05	0.931	0.886	0.965	1.06	0.977	0.771	0.7	0.743	0.935	0.734	0.461	0.339	0.2	0.0585

From the supplement of paper PMC10307832
